Source: ChEMBL document CHEMBL5465560, “Selectivity Literature for EUbOPEN Chemogenomic Library” (2024)
Each block holds one compound with its values, some of them ahead of it.

Tests used:
[1] = target: T1, Mitogen-activated protein kinase kinase kinase 12 (Homo sapiens) (UniProt Q12852); details: at 10 µM
T1 sequence (whole entry): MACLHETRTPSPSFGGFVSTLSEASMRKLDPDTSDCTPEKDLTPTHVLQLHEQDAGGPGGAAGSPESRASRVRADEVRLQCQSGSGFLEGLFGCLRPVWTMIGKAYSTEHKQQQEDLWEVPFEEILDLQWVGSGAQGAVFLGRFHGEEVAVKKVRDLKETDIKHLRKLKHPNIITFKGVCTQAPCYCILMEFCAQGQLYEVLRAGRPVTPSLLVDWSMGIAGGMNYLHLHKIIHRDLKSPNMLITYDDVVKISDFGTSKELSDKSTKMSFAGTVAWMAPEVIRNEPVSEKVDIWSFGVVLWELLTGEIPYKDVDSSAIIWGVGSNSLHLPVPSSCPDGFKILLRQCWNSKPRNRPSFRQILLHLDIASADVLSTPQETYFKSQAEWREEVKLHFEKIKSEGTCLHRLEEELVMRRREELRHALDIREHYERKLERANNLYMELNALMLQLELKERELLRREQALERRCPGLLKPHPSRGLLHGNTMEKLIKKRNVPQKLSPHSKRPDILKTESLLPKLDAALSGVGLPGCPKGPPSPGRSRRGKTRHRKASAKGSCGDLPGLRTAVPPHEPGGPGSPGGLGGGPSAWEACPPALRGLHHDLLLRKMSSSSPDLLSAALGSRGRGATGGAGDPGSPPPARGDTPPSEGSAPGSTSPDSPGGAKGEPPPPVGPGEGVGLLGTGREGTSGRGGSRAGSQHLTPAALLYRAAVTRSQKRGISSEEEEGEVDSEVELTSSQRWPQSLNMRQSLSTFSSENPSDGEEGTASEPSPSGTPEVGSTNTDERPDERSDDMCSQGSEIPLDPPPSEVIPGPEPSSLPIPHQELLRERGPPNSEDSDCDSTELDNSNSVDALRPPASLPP

[2] = target: Tyrosine-protein kinase Fyn (Homo sapiens) (UniProt P06241); assay: Selectivity interaction (KinomeScan (DiscoverX)) EUB0001049a FYN; details: at 1 µM
[3] = target: MAP kinase-activated protein kinase 2 (Homo sapiens, UniProt P49137); assay: Selectivity interaction (KinomeScan (DiscoverX)) EUB0001049a MAPKAPK2; details: at 1 µM
[4] = target: T2, Interleukin-1 receptor-associated kinase 3 (Homo sapiens) (UniProt Q9Y616); assay: Selectivity interaction (ActivX KiNativ screen (kinase selectivity in THP-1 cell lysates)) EUB0000639a IRAK3; assay type: subcellular; details: lysate, at 0.04 µM
T2 sequence (whole entry): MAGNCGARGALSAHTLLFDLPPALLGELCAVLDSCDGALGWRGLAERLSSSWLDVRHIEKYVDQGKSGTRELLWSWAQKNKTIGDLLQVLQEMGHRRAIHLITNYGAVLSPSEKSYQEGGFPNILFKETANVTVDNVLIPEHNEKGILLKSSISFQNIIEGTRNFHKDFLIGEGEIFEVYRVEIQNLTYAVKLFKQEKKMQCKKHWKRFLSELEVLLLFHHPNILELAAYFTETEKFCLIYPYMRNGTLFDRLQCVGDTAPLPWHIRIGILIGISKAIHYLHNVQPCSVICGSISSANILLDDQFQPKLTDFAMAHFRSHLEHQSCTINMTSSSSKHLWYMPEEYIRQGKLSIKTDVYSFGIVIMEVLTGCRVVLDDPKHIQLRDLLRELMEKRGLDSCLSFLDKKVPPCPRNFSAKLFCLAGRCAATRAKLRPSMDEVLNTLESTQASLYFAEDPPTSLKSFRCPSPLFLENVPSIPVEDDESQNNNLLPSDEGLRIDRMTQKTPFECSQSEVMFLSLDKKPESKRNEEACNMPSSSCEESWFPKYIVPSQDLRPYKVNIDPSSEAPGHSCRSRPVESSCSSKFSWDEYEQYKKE

[5] = target: Tyrosine-protein kinase JAK1 (Homo sapiens, UniProt P23458); assay: Selectivity interaction (ActivX KiNativ screen (kinase selectivity in THP-1 cell lysates)) EUB0000639a JAK1; assay type: subcellular; details: lysate, at 1 µM
[6] = target: MAP kinase-activated protein kinase 5 (Homo sapiens, UniProt Q8IW41); assay: Selectivity interaction (Kinase panel (33PanQinase(R) Activity Assay)) EUB0000877a MAPKAPK5
Sequence of MAP kinase-activated protein kinase 5 (Q8IW41 whole entry): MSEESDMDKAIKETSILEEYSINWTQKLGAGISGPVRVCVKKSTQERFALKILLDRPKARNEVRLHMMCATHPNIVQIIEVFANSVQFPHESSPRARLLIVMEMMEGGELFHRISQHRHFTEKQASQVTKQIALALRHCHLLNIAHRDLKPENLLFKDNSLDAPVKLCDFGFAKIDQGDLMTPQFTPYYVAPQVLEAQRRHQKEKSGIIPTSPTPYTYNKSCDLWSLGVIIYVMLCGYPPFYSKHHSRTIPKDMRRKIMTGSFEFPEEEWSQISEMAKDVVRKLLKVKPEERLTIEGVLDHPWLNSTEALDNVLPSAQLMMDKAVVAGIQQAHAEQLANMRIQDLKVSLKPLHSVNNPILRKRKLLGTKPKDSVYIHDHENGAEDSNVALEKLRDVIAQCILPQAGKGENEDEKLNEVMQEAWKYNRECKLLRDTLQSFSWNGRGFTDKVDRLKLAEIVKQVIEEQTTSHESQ

[7] = target: Serine/threonine-protein kinase N1 (Homo sapiens, UniProt Q16512); details: at 10 µM
[8] = target: D(2) dopamine receptor (Homo sapiens, UniProt P14416); assay: Selectivity interaction (Panel of non-epigenetic targets (kinases, GPCRs, ion channels, and transporters, Eurofins) ) EUB0000271b DRD2; details: at 1 µM
Sequence of D(2) dopamine receptor (P14416 whole entry, canonical isoform): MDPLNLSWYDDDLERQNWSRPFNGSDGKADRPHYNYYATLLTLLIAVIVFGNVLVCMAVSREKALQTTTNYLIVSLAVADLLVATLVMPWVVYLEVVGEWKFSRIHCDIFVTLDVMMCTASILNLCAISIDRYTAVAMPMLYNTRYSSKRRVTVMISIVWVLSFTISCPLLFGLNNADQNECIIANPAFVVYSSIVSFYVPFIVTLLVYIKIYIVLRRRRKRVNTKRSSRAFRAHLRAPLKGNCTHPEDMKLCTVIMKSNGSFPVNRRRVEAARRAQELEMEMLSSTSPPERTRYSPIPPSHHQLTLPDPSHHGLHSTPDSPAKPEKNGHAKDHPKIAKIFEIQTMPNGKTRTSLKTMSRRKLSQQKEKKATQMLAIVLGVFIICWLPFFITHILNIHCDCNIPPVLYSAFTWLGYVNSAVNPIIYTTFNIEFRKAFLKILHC

[9] = test system: Phosphatidylinositol 4,5-bisphosphate 3-kinase catalytic subunit alpha isoform (Homo sapiens), P42336 [E542K]; details: at 10 µM
Sequence of Phosphatidylinositol 4,5-bisphosphate 3-kinase catalytic subunit alpha isoform (Homo sapiens), P42336 [E542K] (P42336 whole entry E542K, canonical isoform): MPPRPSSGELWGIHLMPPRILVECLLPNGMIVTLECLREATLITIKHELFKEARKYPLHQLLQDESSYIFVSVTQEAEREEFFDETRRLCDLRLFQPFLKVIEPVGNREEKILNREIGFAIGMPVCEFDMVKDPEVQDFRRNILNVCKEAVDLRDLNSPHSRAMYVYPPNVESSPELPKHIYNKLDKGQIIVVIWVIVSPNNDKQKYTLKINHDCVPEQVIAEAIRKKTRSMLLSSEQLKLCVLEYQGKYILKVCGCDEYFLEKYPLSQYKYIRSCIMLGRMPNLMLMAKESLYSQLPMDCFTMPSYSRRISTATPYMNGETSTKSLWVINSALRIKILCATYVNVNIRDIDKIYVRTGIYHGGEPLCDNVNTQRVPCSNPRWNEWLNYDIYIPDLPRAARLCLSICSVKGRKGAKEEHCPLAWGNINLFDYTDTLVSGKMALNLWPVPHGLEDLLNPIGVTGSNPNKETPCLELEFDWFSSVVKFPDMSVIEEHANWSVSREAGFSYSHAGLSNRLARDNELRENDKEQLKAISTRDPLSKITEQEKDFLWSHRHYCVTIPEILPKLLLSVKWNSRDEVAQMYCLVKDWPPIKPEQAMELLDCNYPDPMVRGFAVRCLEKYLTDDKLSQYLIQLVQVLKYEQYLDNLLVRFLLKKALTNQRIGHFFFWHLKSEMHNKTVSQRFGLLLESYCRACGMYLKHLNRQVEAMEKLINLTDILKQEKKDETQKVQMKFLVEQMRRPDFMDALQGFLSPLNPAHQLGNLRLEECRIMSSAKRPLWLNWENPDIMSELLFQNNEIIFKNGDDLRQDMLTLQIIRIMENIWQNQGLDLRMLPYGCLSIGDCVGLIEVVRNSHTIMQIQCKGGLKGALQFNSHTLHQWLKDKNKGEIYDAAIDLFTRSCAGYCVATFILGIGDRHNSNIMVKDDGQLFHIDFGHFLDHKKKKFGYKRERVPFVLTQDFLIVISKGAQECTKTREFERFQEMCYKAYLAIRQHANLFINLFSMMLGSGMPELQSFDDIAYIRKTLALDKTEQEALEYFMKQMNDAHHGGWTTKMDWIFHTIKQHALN

[10] = target: T3, Serine/threonine-protein kinase Sgk3 (Homo sapiens) (UniProt Q96BR1); assay: Selectivity interaction (Upstate Kinase Profiler service (Millipore)) EUB0000056c SGK3; details: at 1 µM
T3 sequence (whole entry): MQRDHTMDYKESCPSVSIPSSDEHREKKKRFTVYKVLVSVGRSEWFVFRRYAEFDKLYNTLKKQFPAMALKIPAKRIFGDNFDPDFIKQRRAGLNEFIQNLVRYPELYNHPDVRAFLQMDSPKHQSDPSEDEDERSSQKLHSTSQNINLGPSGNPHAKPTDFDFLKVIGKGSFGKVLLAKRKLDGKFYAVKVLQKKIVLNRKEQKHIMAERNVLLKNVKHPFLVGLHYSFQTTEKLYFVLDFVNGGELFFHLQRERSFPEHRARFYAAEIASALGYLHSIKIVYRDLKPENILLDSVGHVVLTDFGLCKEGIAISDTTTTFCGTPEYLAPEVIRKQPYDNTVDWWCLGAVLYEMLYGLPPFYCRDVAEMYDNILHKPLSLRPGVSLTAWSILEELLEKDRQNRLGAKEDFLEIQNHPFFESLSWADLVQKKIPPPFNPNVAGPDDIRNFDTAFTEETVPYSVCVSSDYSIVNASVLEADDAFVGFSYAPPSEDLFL

[11] = target: Ribosomal protein S6 kinase alpha-4 (Homo sapiens) (UniProt O75676); assay: Selectivity interaction (KinomeScan (DiscoverX)) EUB0000045b RPS6KA4
Sequence of Ribosomal protein S6 kinase alpha-4 (Homo sapiens) (O75676 whole entry, looked up): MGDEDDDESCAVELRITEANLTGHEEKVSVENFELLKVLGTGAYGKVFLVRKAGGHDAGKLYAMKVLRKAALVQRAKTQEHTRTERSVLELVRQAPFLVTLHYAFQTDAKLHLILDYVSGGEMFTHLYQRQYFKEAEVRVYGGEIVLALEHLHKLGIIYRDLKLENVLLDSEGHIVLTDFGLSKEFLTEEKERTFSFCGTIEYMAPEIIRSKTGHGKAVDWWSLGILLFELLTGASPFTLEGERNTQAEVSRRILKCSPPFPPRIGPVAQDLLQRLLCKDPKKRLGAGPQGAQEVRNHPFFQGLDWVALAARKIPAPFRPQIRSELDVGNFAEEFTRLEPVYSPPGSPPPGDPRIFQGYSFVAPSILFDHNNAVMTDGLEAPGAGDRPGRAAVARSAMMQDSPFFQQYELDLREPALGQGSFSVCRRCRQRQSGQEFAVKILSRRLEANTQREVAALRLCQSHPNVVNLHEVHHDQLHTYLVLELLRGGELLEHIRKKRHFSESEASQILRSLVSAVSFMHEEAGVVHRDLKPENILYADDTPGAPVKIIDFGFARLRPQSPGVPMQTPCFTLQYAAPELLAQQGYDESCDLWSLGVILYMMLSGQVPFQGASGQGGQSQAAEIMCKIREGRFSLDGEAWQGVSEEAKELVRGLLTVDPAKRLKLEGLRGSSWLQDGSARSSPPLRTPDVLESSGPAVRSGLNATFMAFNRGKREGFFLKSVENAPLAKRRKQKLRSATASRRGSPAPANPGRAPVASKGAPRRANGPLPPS

[12] = target: Dual specificity tyrosine-phosphorylation-regulated kinase 1B (Homo sapiens, UniProt Q9Y463); assay: Selectivity interaction (KinomeScan (DiscoverX)) EUB0001619a DYRK1B; details: at 1 µM
Sequence of Dual specificity tyrosine-phosphorylation-regulated kinase 1B (Q9Y463 whole entry, looked up): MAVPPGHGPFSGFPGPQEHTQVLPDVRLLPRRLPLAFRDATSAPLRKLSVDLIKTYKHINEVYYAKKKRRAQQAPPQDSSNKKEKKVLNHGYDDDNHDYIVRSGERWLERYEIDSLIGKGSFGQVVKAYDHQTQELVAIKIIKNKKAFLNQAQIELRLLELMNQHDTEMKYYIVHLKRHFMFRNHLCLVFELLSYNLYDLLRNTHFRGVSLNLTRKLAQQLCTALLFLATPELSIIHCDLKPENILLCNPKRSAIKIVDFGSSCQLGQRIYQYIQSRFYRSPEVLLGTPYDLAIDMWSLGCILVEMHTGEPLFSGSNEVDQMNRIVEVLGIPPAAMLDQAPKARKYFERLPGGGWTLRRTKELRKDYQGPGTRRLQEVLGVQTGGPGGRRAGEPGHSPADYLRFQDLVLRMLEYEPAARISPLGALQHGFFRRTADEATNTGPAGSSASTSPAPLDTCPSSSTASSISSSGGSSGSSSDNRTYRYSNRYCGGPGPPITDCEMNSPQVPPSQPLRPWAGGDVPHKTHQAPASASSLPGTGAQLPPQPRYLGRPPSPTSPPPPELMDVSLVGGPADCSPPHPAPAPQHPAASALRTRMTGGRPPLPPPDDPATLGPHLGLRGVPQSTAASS

[13] = target: Interleukin-1 receptor-associated kinase 1 (Homo sapiens) (UniProt P51617); assay: Selectivity interaction (KinomeScan (DiscoverX)) EUB0001619a IRAK1; details: at 1 µM
Sequence of Interleukin-1 receptor-associated kinase 1 (Homo sapiens) (P51617 whole entry, looked up, canonical isoform): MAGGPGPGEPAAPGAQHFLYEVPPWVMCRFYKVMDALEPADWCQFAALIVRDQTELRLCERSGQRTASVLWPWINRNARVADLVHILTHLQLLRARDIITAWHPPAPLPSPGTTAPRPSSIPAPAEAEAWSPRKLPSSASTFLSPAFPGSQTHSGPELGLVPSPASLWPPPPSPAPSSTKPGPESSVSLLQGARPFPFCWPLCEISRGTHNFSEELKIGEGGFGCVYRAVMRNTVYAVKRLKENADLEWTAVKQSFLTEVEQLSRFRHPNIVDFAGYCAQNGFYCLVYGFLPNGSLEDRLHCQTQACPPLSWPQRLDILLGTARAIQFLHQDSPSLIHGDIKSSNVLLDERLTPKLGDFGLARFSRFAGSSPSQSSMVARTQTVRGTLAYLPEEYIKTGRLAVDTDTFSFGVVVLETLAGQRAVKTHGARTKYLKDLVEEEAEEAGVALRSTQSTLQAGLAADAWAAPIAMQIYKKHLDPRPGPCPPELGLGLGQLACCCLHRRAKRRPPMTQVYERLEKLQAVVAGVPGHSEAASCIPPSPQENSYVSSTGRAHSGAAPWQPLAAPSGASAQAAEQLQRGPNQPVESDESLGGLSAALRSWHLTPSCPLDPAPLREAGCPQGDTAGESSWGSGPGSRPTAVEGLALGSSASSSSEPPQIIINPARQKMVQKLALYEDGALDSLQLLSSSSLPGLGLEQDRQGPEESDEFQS

[14] = target: Phosphorylase b kinase gamma catalytic chain, skeletal muscle/heart isoform (Homo sapiens) (UniProt Q16816); assay: Selectivity interaction (KinomeScan (DiscoverX)) EUB0000618a PHKG1; details: at 10 µM
Sequence of Phosphorylase b kinase gamma catalytic chain, skeletal muscle/heart isoform (Homo sapiens) (Q16816 whole entry, looked up, canonical isoform): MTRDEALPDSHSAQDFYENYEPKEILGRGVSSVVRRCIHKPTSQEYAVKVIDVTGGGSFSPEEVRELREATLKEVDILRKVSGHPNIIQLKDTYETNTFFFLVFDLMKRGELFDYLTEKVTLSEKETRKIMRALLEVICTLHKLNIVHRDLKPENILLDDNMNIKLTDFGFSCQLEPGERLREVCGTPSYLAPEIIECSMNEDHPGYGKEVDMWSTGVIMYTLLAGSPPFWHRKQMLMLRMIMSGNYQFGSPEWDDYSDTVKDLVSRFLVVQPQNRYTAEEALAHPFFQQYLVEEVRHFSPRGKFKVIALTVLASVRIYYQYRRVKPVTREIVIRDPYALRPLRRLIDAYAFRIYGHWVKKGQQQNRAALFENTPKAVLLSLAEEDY

[15] = target: Serine/threonine-protein kinase 32C (Homo sapiens) (UniProt Q86UX6); assay: Selectivity interaction (KinomeScan (DiscoverX)) EUB0000618a STK32C; details: at 10 µM
Sequence of Serine/threonine-protein kinase 32C (Homo sapiens) (Q86UX6 whole entry): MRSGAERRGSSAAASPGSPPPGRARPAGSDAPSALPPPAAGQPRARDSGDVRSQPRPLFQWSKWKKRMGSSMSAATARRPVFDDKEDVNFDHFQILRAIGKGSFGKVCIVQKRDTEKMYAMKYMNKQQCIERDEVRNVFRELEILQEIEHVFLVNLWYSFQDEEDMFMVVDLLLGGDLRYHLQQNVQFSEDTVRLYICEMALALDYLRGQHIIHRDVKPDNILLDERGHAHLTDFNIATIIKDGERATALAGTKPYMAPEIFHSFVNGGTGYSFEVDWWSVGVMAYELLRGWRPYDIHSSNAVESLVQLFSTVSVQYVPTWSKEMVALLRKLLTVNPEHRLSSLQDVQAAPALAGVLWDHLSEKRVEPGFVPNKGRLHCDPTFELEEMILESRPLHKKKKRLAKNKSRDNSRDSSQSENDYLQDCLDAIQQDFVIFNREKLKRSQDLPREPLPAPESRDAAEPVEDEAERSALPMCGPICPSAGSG

Compound: Cc1cc([C@@H](C)Nc2ccccc2C(=O)O)c2nc(N3CCOCC3)cc(=O)n2c1 [AZD-6482]
% of control [1]: 85%

Compound: COc1cc(Nc2nc(C)cc(-c3cnn4nc(OC)ccc34)n2)cc(C(F)(F)F)c1
% of control [2]: 100%
% of control [3]: 52%

% of inhibition [4]: -1.7%
% of inhibition [5]: 3.8%
Compound: CC[C@@H]1[C@H](F)C(=O)N[C@@H]1COc1nccc2cc(C(N)=O)c(OC)cc12 [ZIMLOVISERTIB]

IC50 [6]: > 10 µM
Compound: CCC(=O)N1CC[C@H](Nc2ncnc3c2CN(c2cnc(OC)c(C(F)(F)F)c2)CC3)C1 [LENIOLISIB]

% of control [7]: 100%
Compound: CCN(CC)CCCCNc1ncc2cc(-c3cc(OC)cc(OC)c3)c(NC(=O)NC(C)(C)C)nc2n1

Compound: Cc1cc(C)cc([C@@H]2c3cc(C)ccc3NC(=O)CN2C(=O)c2ccc(Br)s2)c1
% of inhibition [8]: -1%

Compound: COCC(=O)NC/C=C/c1ccc2ncnc(Nc3ccc(Oc4ccc(C)nc4)c(C)c3)c2c1 [CP-724714]
% of control [9]: 100%

% of inhibition [10]: -1%
Compound: Cc1ccc(-c2ccc3c(ccc4sc5c(c43)NC[C@@H](C)NC5=O)n2)cn1

Compound: C=CC(=O)Nc1cc(-n2c(=O)ccc3cnc4ccc(-c5ccc(NS(C)(=O)=O)cc5)cc4c32)ccc1C
% of control ([11]; at 1 µM): 100%
% of control ([11]; at 10 µM): 100%

Compound: N#Cc1cccc(-c2c[nH]c3ncnc(N4CCOCC4)c23)c1
% of control [12]: 70%
% of control [13]: 23%

Compound: O[C@H]1CC[C@H](Nc2ncc3nc(Nc4c(F)cc(F)cc4F)n([C@H]4CCOC4)c3n2)CC1
% of control [14]: 100%
% of control [15]: 100%
